Measured values from patent US12077501B2, “Compounds and compositions for intracellular delivery of agents” (ModernaTX, Inc., priority 2017, dated 2024).

Tests used:
[1] = Characteristics of nanoparticle compositions formulated with PEG-DMG or PEG 1 over 4 weeks; assay type: physicochemical
Protocol: Formulations were prepared according to Table 13 and included an mRNA encoding hEPO and the particle size, polydispersity index and encapsulation efficiency were recorded on day 1 (week 1), day 8 (week 2), day 15 (week 3), and day 22 (week 4), of the study.

[2] = tested on: hepatocytes and Kupffer cells; assay: Mouse liver immunohistochemistry (IHC) with GFP mRNA (FIGS. 11A, 11B); assay type: in vivo; conditions: LDLR knockout mouse liver, 8h after intravenous administration, 0.5 mpk (FIG. 11B), in contrast to MC3
Excerpt: FIGS. 11A and 11B are a pair of images comparing the results of a mouse liver immunohistochemistry (IHC) using mRNA expressing green fluorescent protein (GFP) after administration of nanoparticle compositions containing Compound 4 and MC3.

[3] = Particle size and polydispersity index of nanoparticle compositions (Zetasizer Nano ZS); assay type: physicochemical; conditions: row marked **: Formulated with lipid:Chol:DOPE:PEG 1 30:38.5:30:1.5
Protocol: A Zetasizer Nano ZS (Malvem Instruments Ltd, Malvem, Worcestershire, UK) can be used to determine the particle size, the polydispersity index (PDI) and the zeta potential of the nanoparticle compositions in 1×PBS in determining particle size and 15 mM PBS in determining zeta potential.

hEPO expression [4] = assay: hEPO expression in CD-1 mice compared with MC3; assay type: in vivo
Outline: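 Nanoparticle compositions containing the test compound were dosed to CD-1 mice at 0.5 mpk, and hEPO expression was measured. Clearance data were collected from the same compositions.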

hEPO expression [5] = assay: hEPO expression in Cynomolgus monkeys; assay type: in vivo; conditions: 0.05 mg/kg
Protocol: Nanoparticle compositions of the disclosure, including an mRNA encoding hEPO and comprising a miR binding site, were administered to Cynomolgus monkeys at a dose of 0.05 mg/kg via a 60 min intravenous infusion.

[6] = Lipid clearance: % dose remaining in liver of CD-1 mice; assay type: in vivo; conditions: intravenous, 0.5 mg/kg, CD-1 mouse, Table 8a
Outline: (§1)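 Nanoparticle compositions of the disclosed lipids given intravenously and benchmarked against MC3. Protein expression reported as AUC (p/s*h) and clearance as % dose remaining in liver of CD-1 mice; hEPO expression in CD-1 mice measured at 0.5 mpk.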

hEPO expression [7] = assay: hEPO (miR126 + miR142) mRNA expression, Tables 8b-8e; assay type: in vivo
[8] = Purity at start and after storage for 65 h at 25 °C or 37 °C; assay type: physicochemical
[9] = Encapsulation efficiency of RNA (QUANT-IT RIBOGREEN RNA assay); assay type: physicochemical; conditions: row marked **: Formulated with lipid:Chol:DOPE:PEG 1 30:38.5:30:1.5
Outline: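 Samples diluted to about 5 μg/mL RNA in TE buffer pH 7.5, treated with buffer or 2% Triton X-100 for 15 min at 37° C, then stained with RiboGreen (1:100). Fluorescence at about 480/520 nm, blank-subtracted; free RNA fraction is intact over Triton-disrupted signal.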

[10] = Lipid clearance: % dose remaining, Tables 7c and 8b-8e (species not given); assay type: in vivo
Outline: as §1

LDL levels = LDL levels in LDLr-/- mice relative to untreated; assay type: in vivo; conditions: intravenous, Table 7b
rats = assay: Tolerability / toxicity in rats (FIGS. 8A, 8B); assay type: in vivo; conditions: 2 mg/kg dose
hEPO = hEPO expression in rats after i.v. administration of nanoparticle compositions (FIGS. 8A, 8B); assay type: in vivo, rat; conditions: rats (FIGS. 8A and 8B)
Excerpt: PBS (phosphate buffered saline) is used as control. FIG. 8A compares the hEPO concentration after administration of nanoparticle compositions containing Compound 23, Compound 11, KL22, and MC3 at 2 mpk, i.v. administration. […] FIG. 8B illustrates the results of a dose response study using Compound 20, KL22, and MC3 at dose of 0.2, 0.5 and 1 mpk. […] In FIG. 8A, the numbers 1-5 refer to compositions containing the following: 1: Compound 23, 2: Compound 11, 3: KL22; 4: MC3; 5: PBS. In FIG. 8B, the numbers […] refer to compositions containing the following: 1: Compound 20, 0.2 mpk; 2: Compound 20, 0.5 mpk; 3: Compound 20, 1 mpk; 4: KL22, 0.2 mpk; 5: KL22, 0.5 mpk; 6: KL22, 1 mpk; 7: MC3, 0.2 mpk; 8: MC3, 0.5 mpk; 9: MC3, 1 mpk; 10: PBS.

[11] = Week 1, 40:20:38.5:1.5 Lipid:DOPE:Chol:PEG 1
[12] = Week 1, 40:20:38.5:1.5 Lipid:DOPE:Chol:PEG-DMG
[13] = Week 2, 40:20:38.5:1.5 Lipid:DOPE:Chol:PEG 1
[14] = Week 2, 40:20:38.5:1.5 Lipid:DOPE:Chol:PEG-DMG
[15] = Week 3, 40:20:38.5:1.5 Lipid:DOPE:Chol:PEG 1
[16] = Week 3, 40:20:38.5:1.5 Lipid:DOPE:Chol:PEG-DMG
[17] = Week 4, 40:20:38.5:1.5 Lipid:DOPE:Chol:PEG 1
[18] = Week 4, 40:20:38.5:1.5 Lipid:DOPE:Chol:PEG-DMG

CCCCCCCCCN(CCCCCCCCC)CCN(CCCCCCCCC)CC(=O)N1CCN(C(=O)CN(CCCCCCCCC)CCCCCCCCC)CC1 [Compound 4, 2-(Dinonylamino)-1-(4-(N-(2-(dinonylamino)ethyl)-N-nonylglycyl)piperazin-1-yl)ethan-1-one]
EE (%) [1, 11]: 98%
PDI [1, 11]: 0.22
Size (nm) [1, 11]: 101.5 nm
EE (%) [1, 12]: 99%
PDI [1, 12]: 0.23
Size (nm) [1, 12]: 79.9 nm
EE (%) [1, 13]: 97%
PDI [1, 13]: 0.21
Size (nm) [1, 13]: 104.1 nm
EE (%) [1, 14]: 99%
PDI [1, 14]: 0.21
Size (nm) [1, 14]: 79.9 nm
EE (%) [1, 15]: 97%
PDI [1, 15]: 0.2
Size (nm) [1, 15]: 100.4 nm
EE (%) [1, 16]: 99%
PDI [1, 16]: 0.22
Size (nm) [1, 16]: 77.3 nm
EE (%) [1, 17]: 97%
PDI [1, 17]: 0.2
Size (nm) [1, 17]: 101.9 nm
EE (%) [1, 18]: 99%
PDI [1, 18]: 0.21
Size (nm) [1, 18]: 73.6 nm
GFP protein expression in liver cell types (IHC) [2]: less protein expression in Kupffer cells
PDI ([3]; Table 1e): 0.19
Size (nm) ([3]; Table 1e): 99.2 nm
PDI ([3]; Table 1f): 0.21
Size (nm) ([3]; Table 1f): 111.5 nm
PDI ([3]; Table 1d): 0.23
Size (nm) ([3]; Table 1d): 101.5 nm
AUC (p/s*h) CD-1 mice 0.5 mpk (hEPO expression [4]; intramuscular, title: 0.01 mg/kg, Table 7f): 366551 p/s*h
AUC (p/s*h) CD-1 mice 0.5 mpk (hEPO expression [4]; subcutaneous, 0.5 mg/kg, Table 7g): 859874 p/s*h
levels of hEPO expression compared to MC3 (hEPO expression [5]): improved levels of hEPO expressions
% Dose Remaining 24 hr [6]: 60.36%
AUC (hEPO expression [7]; Table 8b): 6.7e+07 pg·h/mL
AUC (hEPO expression [7]; Table 8c): 8.47e+07 pg·h/mL
AUC (hEPO expression [7]; Table 8d): 1.83e+09 pg·h/mL
AUC (mIU/mL*h) (hEPO expression [7]; lipid:Chol:PEG 1 50:47.5:2.5, Table 8e): 2.76E+08 mIU/mL*h
Purity % 25° C. no shaking t = 65 h ([8]; after storage for 65 h at 25° C., no shaking): 99%
Purity % 37° C. shaking t = 65 h ([8]; after storage for 65 h at 37° C., shaking): 99%
Purity % t = 0 h ([8]; beginning of the study, 25° C.): 98%
EE (%) ([9]; Table 1e): 98.6%
EE (%) ([9]; Table 1f): 98.8%
EE (%) ([9]; Table 1d): 99.1%
% Dose Remaining (liver, 24 h) ([10]; Table 8b): 39.23%
% Dose Remaining (liver, 24 h) ([10]; Table 8c): 37.05%
% Dose Remaining (liver, 24 h) ([10]; Table 8d): 43.02%

CCCCCCCCCCCCN(CCCCCCCCCCCC)CCN(CCCCCCCCCCCC)CCN1CCN(CCN(CCCCCCCCCCCC)CCCCCCCCCCCC)CC1 [KL22, N1-[2-(didodecylamino)ethyl]-N1,N4,N4-tridodecyl-1,4-piperazinediethanamine, reference compound]
LDL levels lipid/untreated LDLr−/− mice 0.5 mpk, LDLr (LDL levels): 0.51
toxicity (rats): toxic
hEPO expression levels in rats (hEPO): do not express hEPO in rats
